{
  "source": "patent US20110300240A1",
  "about": "“CAJANUS EXTRACTS AND GLUCOSAMINE FOR INFLAMMATORY DISORDERS” (priority 2009, published 2011)",
  "key": {"[1]": {"test_system": "RAW264.7 murine macrophage cell line, PGE2 production", "assay": "Inhibition of PGE2 synthesis in LPS-stimulated RAW264.7 macrophages (EIA)", "format": "cell-based", "experimental": "(§1) The anti-inflammatory effect of a mixture of Cajanus in combination with glucosamine sulfate was determined in cellular assays by measuring the inhibition of the synthesis of nitric oxide and/or pro-inflammatory prostaglandins (PGE2). PGE2 plays a critical role in the inflammation process, while nitric oxide (NO) is a hallmark of inflammation in various chronic inflammatory diseases including various forms of arthritis, gastro-intestinal diseases and metabolic syndrome X (Creamer P et al 1997 Lancet 350:503-508; Vuolteenaho et al. 2007 Scand. J Rheumatology 36:247-258).\n(§2) The effects on the inflammatory response were tested in cellular assays using a murine macrophage cell line, RAW264.7. […]\n(§3) Concentrations of nitrite were determined by the Griess reaction using sodium nitrite as standard. Briefly, 50 ul of supernatant was mixed with Griess reagent 1 (25 uL) and Griess reagent 2 (25 uL), centrifuged and the optical density at 540 nm determined. PGE2 secreted into the cell culture medium was determined by EIA obtained from Cayman Chemicals (Ann Harbor, Wis., USA) and used according to the manufacturer's instructions. […] IC50 values for LPS-stimulated cells were calculated using a […] least-square fitting equation [y=A+((B−A)/(1+((C−x)̂D))] for best-fit curves (Excel fit software program)."}, "[2]": {"test_system": "RAW264.7 murine macrophage cell line, nitric oxide production", "assay": "Inhibition of nitric oxide production in LPS-stimulated RAW264.7 macrophages (Griess reaction); isobologram for combinations", "format": "cell-based", "experimental": "as §1, §2\nas §3, with “program). […]” for “program).”"}, "[3]": {"conditions": "Mus musculus, single substances, LPS 1 ug/ml, 24 hours, RAW264.7"}},
  "data": [
    {"compound": "N[C@H]1C(O)O[C@H](CO)[C@@H](O)[C@@H]1O.O=S(=O)(O)O", "note": "(stereo partly shown) [Glucosamine sulfate]", "values": [
      {"measurement": "effect on PGE2 production (in words)", "setting": "[1]; LPS-stimulated RAW264.7", "value": "no or only a marginal anti-inflammatory"},
      {"measurement": "IC50", "setting": "[1]; [3]", "value": "> 100", "unit": "µg/mL"},
      {"measurement": "effect on NO production (in words)", "setting": "[2]; LPS-stimulated RAW264.7", "value": "no or only a marginal anti-inflammatory"},
      {"measurement": "IC50", "setting": "[2]; [3]", "value": "> 100", "unit": "µg/mL"}
    ]}
  ]
}
